The source of these data is publication PMC11678782, “The Antioxidant and Anti-Inflammatory Activities of the Methanolic Extract, Fractions, and Isolated Compounds from Eriosema montanum Baker f. (Fabaceae)” (Molecules, 2024).

What is called IC50 is the midpoint of a concentration-inhibition curve.

The structures appear in SMILES notation. In brackets after ≈: the same amount, converted by molar mass. Entries after “also recorded” stand apart in the source; their conditions may differ.

Test [1] relates to LPS-stimulated RAW 264.7 cells. Briefly: NO production inhibition in LPS-stimulated RAW 264.7 cells (Griess). Format: cell-based, murine. As to conditions: for IC50: Mus musculus, RAW264.7, RAW 264.7, 2 h pre-treatment, 500 ng/mL LPS 24 h; for Inhibition of LPS-induced NO production: RAW 264.7, single-concentration test at 100 µg/mL, vs control cells. The protocol:
[…] in a humidified environment containing 5% CO2 and 95% air. For NO and ROS production inhibition assays, the cytotoxic effect of tested samples at 100 µg/mL after 24 h of exposure was initially measured on RAW 264.7 cells (10,000 cells per well) using the standard MTT assay. Then, for NO production inhibition assay, RAW 264.7 cells were pre-treated with tested samples at 100 µg/mL for 2 h followed by addition of culture medium containing 500 ng/mL of lipopolysaccharide (LPS) (Merck, Darmstadt, Germany). After 24 h of incubation under standard cell-culture conditions, NO released was measured in cell supernatants using the Griess reagent (Sigma Aldrich, Darmstadt, Germany), and a SpectraMax iD3 multi-mode microplate reader (Molecular Devices, San Jose, CA, USA) was used to capture the absorbance readings at 540 nm. The ability of each tested material to reduce nitric oxide synthesis by LPS-stimulated RAW 264.7 macrophages in comparison to the negative control (cells treated with DMSO at 0.5% and LPS without extract) was used to calculate the percentage of NO production inhibition.
The IC50 values were calculated for each biological experiment using the nonlinear regression curve of the % inhibitory activity versus the logarithm (log10) of the various tested concentrations using GraphPad Prism 6.0 software (GraphPad Software, Inc., San Diego, CA, USA). The data are shown as mean ⁱ SEM (standard error of the mean) values, and all biological experiments were conducted in triplicate (n = 3). The statistical analysis was conducted using GraphPad Prism 6.0 software (GraphPad Software, Inc., San Diego, CA, USA). One-way analysis of variance (ANOVA) was used to compare the data across the tested samples and/or controls, and Student–Newman–Keuls or Dunnett’s tests were then performed. A p-value of less than 0.05 indicated a significant difference in the results.

The subject of test [2] is LPS-induced NO production. On the set-up: method as in PMID 20183278, PMID 27087823, PMID 32253713. As to conditions: cited from earlier work.
Details of test [3]: method as in PMID 12510840, PMID 22997529. As to conditions: ONOO−, DPPH•, ABTS•+; cited from earlier work.
For test [4], the system named is LPS-stimulated RAW 264.7 cells. Briefly: ROS production in LPS-stimulated RAW 264.7 cells (DCFH-DA). Format: cell-based, murine. As to conditions: 25, 50, 100 µg/mL, 2 h pre-treatment, 200 ng/mL LPS 24 h. The protocol: For ROS production inhibition, on a black/clear bottom 96-well plate, RAW 264.7 cells were seeded at a density of 10,000 cells per well. The cells were then pre-treated with non-toxic quantities of EMME and genistin (5) at 25, 50, and 100 µg/mL for two hours and then exposed to 200 ng/mL of LPS for twenty-four hours under standard culture conditions. Thereafter, the cells were washed twice with PBS, followed by the addition of 100 µL of fresh FBS-free medium containing 10 µM of the fluorescent probe 2′,7′-dichlorodihydrofluorescein diacetate (DCFH-DA) (Sigma-Aldrich, Darmstadt, Germany). After 30 min of additional incubation under usual culture conditions, PBS was added to the plate in place of the fluorescent probe. The fluorescence of the cells was measured using a SpectraMax iD3 multi-mode microplate reader (Molecular Devices, San Jose, CA, USA) at 485 nm (excitation) and 535 nm (emission). The percentage of cells treated with DMSO 0.5% without LPS, known as the negative control, was used to express the intracellular ROS levels. Using an excitation/emission filter (480/535 nm) on a 40× objective, images were taken with a camera (Flexacam C1, Leica Microsystems, Wetzlar, Germany) attached to a fluorescence microscope (Leica Microsytems GmbH, Wetzlar, Germany).

For `CCCCCCCCCCCCCCCC` [Compound 1, n-hexadecane], the IC50 in test [1] is > 100 µg/mL.
Same read-out and setting: next, `CCCCCCCCCCCCCCCCCCCCCCCO` [Compound 3, tricosan-1-ol]: > 100 µg/mL; `O=c1c2c(O)cc(O)cc2oc2oc3cc(O)ccc3c12` [Compound 4, lupinalbin A]: > 100 µg/mL.
As for `O=c1c(-c2ccc(O)cc2)coc2cc(O[C@@H]3O[C@H](CO)[C@@H](O)[C@H](O)[C@H]3O)cc(O)c12` [Compound 5, genistin], in test [1], the IC50 turned out to be 66 ± 4.21 µg/mL (≈ 153 µM). Moreover, the “Inhibition of LPS-induced NO production” value in test [1] is “significantly inhibited”; in test [1] (listed as Genistin (5)), “able to inhibit”; in test [1] (listed as genistin (5)), “moderate activity; also recorded: moderately effective”. In test [2], the “Effect on LPS-induced NO production” value was “decreases LPS-induced NO production”. Besides, in test [3], the “Antioxidant properties via scavenging activity” value is “moderate antioxidant properties”. The “Inhibition of LPS-induced ROS production” value was “markedly and dose-dependently reduced” in test [4]; “able to inhibit” in test [4] (listed as Genistin (5)); “moderate activity; also recorded: moderately effective” in test [4] (listed as genistin (5)).
For the molecule `CO[C@H]1[C@H](O)[C@@H](O)[C@@H](O)[C@H](O)[C@@H]1O` [Compound 6, D-pinitol], in test [1], the IC50 was > 100 µg/mL.
Still for that read-out and setting: as for `CC[C@H](/C=C/[C@@H](C)[C@H]1CC[C@H]2[C@@H]3CC=C4C[C@@H](O[C@@H]5O[C@H](CO)[C@@H](O)[C@H](O)[C@H]5O)CC[C@]4(C)[C@H]3CC[C@]12C)C(C)C` [Compound 7, stigmasterol glucoside], the figure is > 100 µg/mL.
